Results reported in patent US9695155B2, “Herbicidal substituted pyrimidinyloxy benzene compounds” (E. I. DU PONT DE NEMOURS AND COMPANY, priority 2013, dated 2017).

Key:
[1] = system: bluegrass; assay: Test D preemergence; format: in vivo, Poa annua; details: Poa annua, pre-emergence
Method in brief: (§1)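 Species were sown in silt loam for preemergence treatment, or grown in peat-based medium to the 1–4-leaf stage (2–18 cm) for postemergence sprays. Test chemicals were formulated in a non-phytotoxic solvent mixture with surfactant. After 7–21 days in a controlled environment, plants were rated visually against controls on a 0 (no effect) to 100 (complete control) scale.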

[2] = system: lambsquarters; assay: Test D preemergence; format: in vivo, Chenopodium album; details: Chenopodium album, pre-emergence
Excerpt: (§2) Seeds of plant species selected from bluegrass (annual bluegrass, Poa annua), blackgrass (Alopecurus myosuroides), canarygrass (littleseed canarygrass, Phalaris minor), chickweed (common chickweed, Stellaria media), galium (catchweed bedstraw, Galium aparine), bromegrass, downy (downy bromegrass, Bromus tectorum), field poppy (Papaver rhoeas), field violet (Viola arvensis), green foxtail (Setaria viridis), deadnettle (henbit deadnettle, Lamium amplexicaule), Italian ryegrass (Lolium multiflorum), kochia (Kochia scoparia), lambsquarters (Chenopodium album), oilseed rape (Brassica napus), pigweed (Amaranthus retroflexus), chamomile (scentless chamomile, Matricaria inodora), Russian thistle (Salsola kali), speedwell (bird's-eye speedwell, Veronica persica), spring barley (Hordeum vulgare), spring wheat (Triticum aestivum), wild buckwheat (Polygonum convolvulus), wild mustard (Sinapis arvensis), wild oat (Avena fatua), wild radish (Raphanus raphanistrum), windgrass (Apera spica-venti), winter barley (Hordeum vulgare), and winter wheat (Triticum aestivum) were planted into a silt loam soil and treated preemergence with test chemicals formulated in a non-phytotoxic solvent mixture which included a surfactant.
(§3) At the same time, these species were planted in pots containing Redi-Earth® planting medium (Scotts Company, 14111 Scottslawn Road, Marysville, Ohio 43041) comprising spaghnum peat moss, vermiculite, wetting agent and starter nutrients and treated with postemergence applications of the test chemicals formulated in the same manner. Plants ranged in height from 2 to 18 cm (1- to 4-leaf stage). Treated plants and controls were maintained in a controlled growth environment for 7 to 21 days after which time all species were compared to controls and visually evaluated. Plant response ratings, summarized in Table D, are based on a scale of 0 to 100 where 0 is no effect and 100 is complete control. A dash (-) response means no test result.

[3] = system: oilseed rape; assay: Test D preemergence; format: in vivo, Brassica napus; details: Brassica napus, pre-emergence
Method in brief: as §1

[4] = system: speedwell; assay: Test D preemergence; format: in vivo, Veronica persica; details: Veronica persica, pre-emergence, 16 g ai/ha, scale 0 (no effect) to 100 (complete control), read-out: Plant response rating, Speedwell
Excerpt: as §2, §3

[5] = system: spring wheat; assay: Test D preemergence; format: in vivo, Triticum aestivum; details: Triticum aestivum, pre-emergence
Excerpt: as §2, §3

[6] = system: winter wheat; assay: Test D preemergence; format: in vivo, Triticum aestivum; details: Triticum aestivum, pre-emergence
Excerpt: as §2, §3

[7] = system: Italian ryegrass; assay: Test D postemergence; format: in vivo, Lolium multiflorum; details: Lolium multiflorum, post-emergence
Method in brief: as §1

[8] = system: oilseed rape; assay: Test D postemergence; format: in vivo, Brassica napus; details: Brassica napus, post-emergence
Method in brief: as §1

[9] = system: speedwell; assay: Test D postemergence; format: in vivo, Veronica persica; details: Veronica persica, post-emergence
Excerpt: as §2, §3

[10] = system: wild oat; assay: Test D postemergence; format: in vivo, Avena fatua; details: Avena fatua, post-emergence
Excerpt: as §2, §3

[11] = system: wild radish; assay: Test D postemergence; format: in vivo, Raphanus raphanistrum; details: Raphanus raphanistrum, post-emergence
Excerpt: as §2, §3

FC(F)(F)c1cnn(-c2ccccc2Oc2ncc(Br)cn2)c1 [Compound 18, 5-bromo-2-[2-[4-(trifluoromethyl)-1H-pyrazol-1-yl]phenoxy]pyrimidine]
80%: pest or weed control at 31 g/ha ([2]; 31 g ai/ha, scale 0-100, read-out: Plant response rating, Lambsquarters)
40%: plant injury at 16 g/ha ([3]; 16 g ai/ha, scale 0 (no effect) to 100 (complete control), read-out: Plant response rating, Oilseed Rape) | plant injury at 250 g/ha ([6]; 250 g ai/ha, scale 0-100, read-out: Plant response rating, Wheat, Winter)
15%: plant injury at 250 g/ha ([5]; 250 g ai/ha, scale 0-100, read-out: Plant response rating, Wheat, Spring) | pest or weed control at 250 g/ha ([7]; 250 g ai/ha, scale 0 to 100 (0 no effect, 100 complete control), read-out: Plant response rating, Ryegrass, Italian) | pest or weed control at 62 g/ha ([10]; 62 g ai/ha, scale 0 to 100 (0 no effect, 100 complete control), read-out: Plant response rating, Oat, Wild)
50%: pest or weed control at 16 g/ha [4]
25%: pest or weed control at 250 g/ha ([10]; 250 g ai/ha, scale 0 to 100 (0 no effect, 100 complete control), read-out: Plant response rating, Oat, Wild)
5%: plant injury at 125 g/ha ([5]; 125 g ai/ha, scale 0-100, read-out: Plant response rating, Wheat, Spring) | plant injury at 62 g/ha ([6]; 62 g ai/ha, scale 0-100, read-out: Plant response rating, Wheat, Winter) | plant injury at 125 g/ha ([6]; 125 g ai/ha, scale 0-100, read-out: Plant response rating, Wheat, Winter) | pest or weed control at 16 g/ha ([7]; 16 g ai/ha, scale 0-100, read-out: Plant response rating, Ryegrass, Italian) | pest or weed control at 31 g/ha ([7]; 31 g ai/ha, scale 0 to 100 (0 no effect, 100 complete control), read-out: Plant response rating, Ryegrass, Italian) | pest or weed control at 62 g/ha ([7]; 62 g ai/ha, scale 0 to 100 (0 no effect, 100 complete control), read-out: Plant response rating, Ryegrass, Italian)
0%: plant injury at 16 g/ha ([5]; 16 g ai/ha, scale 0 (no effect) to 100 (complete control), read-out: Plant response rating, Wheat, Spring) | plant injury at 31 g/ha ([5]; 31 g ai/ha, scale 0 (no effect) to 100 (complete control), read-out: Plant response rating, Wheat, Spring) | plant injury at 62 g/ha ([5]; 62 g ai/ha, scale 0-100, read-out: Plant response rating, Wheat, Spring) | plant injury at 16 g/ha ([6]; 16 g ai/ha, scale 0 (no effect) to 100 (complete control), read-out: Plant response rating, Wheat, Winter) | plant injury at 31 g/ha ([6]; 31 g ai/ha, scale 0 (no effect) to 100 (complete control), read-out: Plant response rating, Wheat, Winter)
90%: pest or weed control at 31 g/ha ([11]; 31 g ai/ha, scale 0 to 100 (0 no effect, 100 complete control), read-out: Plant response rating, Radish, Wild)
20%: pest or weed control at 125 g/ha ([10]; 125 g ai/ha, scale 0 to 100 (0 no effect, 100 complete control), read-out: Plant response rating, Oat, Wild)
70%: pest or weed control at 62 g/ha ([1]; 62 g ai/ha, scale 0-100, read-out: Plant response rating, Bluegrass) | pest or weed control at 16 g/ha ([2]; 16 g ai/ha, scale 0 (no effect) to 100 (complete control), read-out: Plant response rating, Lambsquarters) | plant injury at 31 g/ha ([8]; 31 g ai/ha, scale 0 to 100 (0 no effect, 100 complete control), read-out: Plant response rating, Oilseed Rape)
30%: pest or weed control at 31 g/ha ([1]; 31 g ai/ha, scale 0-100, read-out: Plant response rating, Bluegrass) | plant injury at 31 g/ha ([3]; 31 g ai/ha, scale 0-100, read-out: Plant response rating, Oilseed Rape)
35%: plant injury at 16 g/ha ([8]; 16 g ai/ha, scale 0-100, read-out: Plant response rating, Oilseed Rape)
100%: pest or weed control at 125 g/ha ([1]; 125 g ai/ha, scale 0-100, read-out: Plant response rating, Bluegrass) | pest or weed control at 250 g/ha ([1]; 250 g ai/ha, scale 0-100, read-out: Plant response rating, Bluegrass) | pest or weed control at 62 g/ha ([2]; 62 g ai/ha, scale 0-100, read-out: Plant response rating, Lambsquarters) | pest or weed control at 125 g/ha ([2]; 125 g ai/ha, scale 0-100, read-out: Plant response rating, Lambsquarters) | pest or weed control at 250 g/ha ([2]; 250 g ai/ha, scale 0-100, read-out: Plant response rating, Lambsquarters) | plant injury at 62 g/ha ([3]; 62 g ai/ha, scale 0-100, read-out: Plant response rating, Oilseed Rape) | plant injury at 125 g/ha ([3]; 125 g ai/ha, scale 0-100, read-out: Plant response rating, Oilseed Rape) | plant injury at 250 g/ha ([3]; 250 g ai/ha, scale 0-100, read-out: Plant response rating, Oilseed Rape) | plant injury at 62 g/ha ([8]; 62 g ai/ha, scale 0 to 100 (0 no effect, 100 complete control), read-out: Plant response rating, Oilseed Rape) | plant injury at 125 g/ha ([8]; 125 g ai/ha, scale 0 to 100 (0 no effect, 100 complete control), read-out: Plant response rating, Oilseed Rape) | plant injury at 250 g/ha ([8]; 250 g ai/ha, scale 0 to 100 (0 no effect, 100 complete control), read-out: Plant response rating, Oilseed Rape) | pest or weed control at 16 g/ha ([9]; 16 g ai/ha, scale 0-100, read-out: Plant response rating, Speedwell) | pest or weed control at 31 g/ha ([9]; 31 g ai/ha, scale 0 to 100 (0 no effect, 100 complete control), read-out: Plant response rating, Speedwell) | pest or weed control at 62 g/ha ([9]; 62 g ai/ha, scale 0 to 100 (0 no effect, 100 complete control), read-out: Plant response rating, Speedwell) | pest or weed control at 125 g/ha ([9]; 125 g ai/ha, scale 0 to 100 (0 no effect, 100 complete control), read-out: Plant response rating, Speedwell) | pest or weed control at 250 g/ha ([9]; 250 g ai/ha, scale 0 to 100 (0 no effect, 100 complete control), read-out: Plant response rating, Speedwell) | pest or weed control at 62 g/ha ([11]; 62 g ai/ha, scale 0 to 100 (0 no effect, 100 complete control), read-out: Plant response rating, Radish, Wild) | pest or weed control at 125 g/ha ([11]; 125 g ai/ha, scale 0 to 100 (0 no effect, 100 complete control), read-out: Plant response rating, Radish, Wild) | pest or weed control at 250 g/ha ([11]; 250 g ai/ha, scale 0 to 100 (0 no effect, 100 complete control), read-out: Plant response rating, Radish, Wild)
95%: pest or weed control at 16 g/ha ([11]; 16 g ai/ha, scale 0-100, read-out: Plant response rating, Radish, Wild)
10%: pest or weed control at 16 g/ha ([1]; 16 g ai/ha, scale 0 (no effect) to 100 (complete control), read-out: Plant response rating, Bluegrass) | pest or weed control at 125 g/ha ([7]; 125 g ai/ha, scale 0 to 100 (0 no effect, 100 complete control), read-out: Plant response rating, Ryegrass, Italian) | pest or weed control at 16 g/ha ([10]; 16 g ai/ha, scale 0-100, read-out: Plant response rating, Oat, Wild) | pest or weed control at 31 g/ha ([10]; 31 g ai/ha, scale 0 to 100 (0 no effect, 100 complete control), read-out: Plant response rating, Oat, Wild)
